Experimental data taken from patent US20030125234A1, “Alteration of protein stability” (priority 2001, published 2003).

Legend:
Type in all cases: biochemical
[1] = biological target: T1, yeast alcohol dehydrogenase (ADH) (Saccharomyces cerevisiae, UniProt P00330); assay: ADH oxidation-induced aggregation (turbidity at 360 nm), Cu(OP)2; settings: for inhibition index: ADH 1 mg/mL, 37° C., Cu(OP)2
T1 construct: purchased Sigma
T1 sequence (P00330 2-348 limits assumed): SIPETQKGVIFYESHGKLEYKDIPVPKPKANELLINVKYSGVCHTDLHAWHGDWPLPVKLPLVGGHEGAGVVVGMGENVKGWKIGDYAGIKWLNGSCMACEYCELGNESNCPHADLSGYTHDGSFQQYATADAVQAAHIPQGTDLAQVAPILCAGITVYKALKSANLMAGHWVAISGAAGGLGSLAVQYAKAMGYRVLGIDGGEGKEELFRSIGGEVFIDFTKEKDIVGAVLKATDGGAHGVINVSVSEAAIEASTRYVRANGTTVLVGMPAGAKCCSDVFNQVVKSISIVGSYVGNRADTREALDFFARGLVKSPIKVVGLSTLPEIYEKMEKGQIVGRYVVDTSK
Protocol: (§1) Bovine insulin [Sigma, St. Louis, Mo., USA] was dissolved in phosphate saline (PBS) (50 mM sodium biphosphate, 100 mM sodium chloride), pH 7.0, bovine alpha-lactalbumin [Sigma] in 50 mM sodium phosphate, 100 mM sodium chloride and 2 mM EDTA, pH 6.2, chicken egg white lysozyme [Sigma] in 100 mM Tris, 1 mM EDTA, pH 8.2, human acidic fibroblast growth factor (FGF-1) in 6.2 mM sodium biphosphate, 120 mM sodium chloride, pH 7.2, porcine somatotropin (pST) [provided by Pfizer, Inc., Groton, Conn., USA] in 10 mM phosphate, pH 6. 1, human apolactoferrin (HLF) [Sigma] in 20 mM HEPES, 154 mM NaCl, pH 7.4, porcine heart citrate synthase (CS) in 40 mM HEPES, 50 mM KCl, 10 mM (NH4)2SO4 mM potassium acetate, pH 7.8, and yeast alcohol dehydrogenase (ADH) [Sigma] in pH 7.0 PBS. Selection of buffer solutions was based on an extensive series of preliminary studies to obtain appropriate insolubilization kinetics as described below.
(§2) Copper O-phenanthroline (1,10-phenanthroline) was prepared by mixing copper sulfate hexahydrate [Fisher] and o-phenanthroline [Sigma] in a 1:2 ratio. 1 M Dithiothreitol (DTT) was prepared at pH 7.0 PBS. Polyethylene glycol (M.W. 8000, Union Carbide, Danbury, Conn., USA) (PEG) was prepared at 20 mg/mL in 10 mM phosphate, pH 6.1.
(§3) The following compounds were obtained from Sigma and used without further purification: oxalic acid, sodium malonate, succinic acid, glutaric acid, adipic acid, pimelic acid, suberic acid, azelaic acid, guanidine hydrochloride, ammonium formate, beta-alanine, 4-aminobutyric acid, 5-aminovaleric acid, 6-aminocaproic acid, 7-aminoheptanoic acid, hydrazine, ethylenediamine, 1,3-diaminopropane, 1,4-diaminobutane, 1,5-diaminopentane, 1,6-diaminohexane, 1,7-diaminoheptane, Glu-Glu, Glu-Lys, Lys-Lys, diglycine, triglycine, tetraglycine, pentaglycine, and hexaglycine. […] Triglycine and tetraglycine were dissolved in pH 8.6 PBS, while pentaglycine and hexaglycine were dissolved in pH 10.6 PBS.
(§4) Each was either dissolved in pH 7.0 PBS, or pH 6.1 10 mM phosphate, and adjusted to the same pH.
(§5) Protein aggregation was monitored for 1 hour at 360 nm using an HP8453 UV-visible spectrophotometer system [Hewlett Packard, Germany]. […] Insulin (0.25 mg/mL (4.39E-5 M)) aggregation was monitored at 25° C. after addition of potential inhibitors and 20 μL of 1 M DTT (1.27E-4 M). Alpha-lactabumin (0.4 mg/mL (2.82E-5 M)) aggregation was monitored at 37° C. in the presence of 20 μL of 1 M DTT (1.27E-4 M). Lysozyme (0.4 mg/mL (2.86E-5 M)) aggregation was monitored at 25° C. in the presence of 20 μL of 1 M DTT (1.27E-4 M). FGF-1 (50 μg/mL (3.12E-6 M)) aggregation was monitored at 50° C. Porcine somatotropin (1.27 mg/mL (5.76E-5 M)) aggregation was monitored at 60° C. in the presence of PEG 8000 (20 mg/mL) which was included to enhance the protein association process through a simple exclusion volume effect. HLF (0.4 mg/mL (5.23E-6 M)) aggregation was monitored at 43° C. in the presence of 1.27E-4 M DTT. Citrate synthase (96 μg/mL (9.80E-7 M)) aggregation was monitored at45° C. ADH (1 mg/mL (7.14E-6 M)) was monitored at 37° C. following the addition of 7.76E-5 M Cu(OP)2. Aggregation was compared to protein in the absence of the particular dipolar compound. After stirring, experiments were initiated by the addition of proteins followed by stressing reagents to 1 cm pathlength cuvettes employing a seven-position thermostatted sample holder that was cycled at 30-second intervals. Alternatively, a microtiter plate reader was employed under the same conditions in a 96 well format.
(§6) All optical density (OD)360nm versus time results were exported into Excel [Microsoft] for data analysis.

[2] = biological target: T2, chicken egg white lysozyme (Gallus gallus, UniProt P00698); assay: Lysozyme aggregation (turbidity at 360 nm) induced by DTT; settings: Lysozyme 0.4 mg/mL, 25° C., DTT; compound 1,000×; standard deviation in parenthesis
T2 construct: chicken egg white lysozyme [Sigma]; purchased Sigma; host or cells: egg white
T2 sequence (P00698 19-147): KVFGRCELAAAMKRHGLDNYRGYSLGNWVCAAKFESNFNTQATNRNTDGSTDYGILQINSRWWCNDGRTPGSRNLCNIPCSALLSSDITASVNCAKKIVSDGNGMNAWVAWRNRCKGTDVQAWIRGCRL
Protocol: as §1, §2, §3, §4, §5, §6

[3] = biological target: human acidic fibroblast growth factor (FGF-1) (Homo sapiens, UniProt P05230); assay: FGF-1 thermal aggregation (turbidity at 360 nm); settings: FGF-1 50 μg/mL, 50° C., standard deviation in parenthesis
Chain of human acidic fibroblast growth factor (FGF-1) (P05230 whole entry): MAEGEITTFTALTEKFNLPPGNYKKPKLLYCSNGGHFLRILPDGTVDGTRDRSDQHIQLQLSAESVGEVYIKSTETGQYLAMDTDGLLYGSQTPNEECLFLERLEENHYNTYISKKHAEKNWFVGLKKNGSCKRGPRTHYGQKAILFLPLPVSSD
Protocol: as §1, §3, §4, §5
(§7) All optical density (OD)360nm versus time results were exported into Excel [Microsoft] for data analysis. […] The maximum rate of change in OD versus time plots (r) was used to determine the rate of the reaction from the slope at this point.

[4] = biological target: T3, bovine alpha-lactalbumin (Bos taurus, UniProt P00711); assay: Alpha-lactalbumin aggregation (turbidity at 360 nm) induced by DTT; settings: α Lactalbumin 0.4 mg/mL, 37° C., DTT; compound 1,000×; standard deviation in parenthesis
T3 construct: purchased Sigma
T3 sequence (P00711 20-142): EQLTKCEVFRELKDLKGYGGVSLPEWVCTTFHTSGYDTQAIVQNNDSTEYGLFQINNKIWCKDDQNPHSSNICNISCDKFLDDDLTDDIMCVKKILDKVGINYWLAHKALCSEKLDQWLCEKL
Protocol: as §1, §2, §3, §4, §5, §6

[5] = biological target: T4, Bovine insulin (Bos taurus, UniProt P01317); assay: Insulin aggregation (turbidity at 360 nm) induced by DTT; settings: Insulin 0.25 mg/mL, 25° C., DTT; compound 100×; standard deviation in parenthesis
T4 construct: purchased Sigma, St. Louis, Mo., USA
T4 sequence (P01317 25-54 limits assumed): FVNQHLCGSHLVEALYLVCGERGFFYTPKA
T4 sequence (P01317 85-105 limits assumed): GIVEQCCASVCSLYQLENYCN
Protocol: as §1, §2, §3, §4, §5, §6

[6] = biological target: T5, porcine heart citrate synthase (CS) (Sus scrofa, UniProt P00889); assay: Citrate synthase thermal aggregation (turbidity at 360 nm); settings: for inhibition index: CS 96 μg/mL, 45° C., standard deviation in parenthesis
T5 construct: porcine heart citrate synthase (CS); from tissue; host or cells: porcine heart
T5 sequence (P00889 28-464): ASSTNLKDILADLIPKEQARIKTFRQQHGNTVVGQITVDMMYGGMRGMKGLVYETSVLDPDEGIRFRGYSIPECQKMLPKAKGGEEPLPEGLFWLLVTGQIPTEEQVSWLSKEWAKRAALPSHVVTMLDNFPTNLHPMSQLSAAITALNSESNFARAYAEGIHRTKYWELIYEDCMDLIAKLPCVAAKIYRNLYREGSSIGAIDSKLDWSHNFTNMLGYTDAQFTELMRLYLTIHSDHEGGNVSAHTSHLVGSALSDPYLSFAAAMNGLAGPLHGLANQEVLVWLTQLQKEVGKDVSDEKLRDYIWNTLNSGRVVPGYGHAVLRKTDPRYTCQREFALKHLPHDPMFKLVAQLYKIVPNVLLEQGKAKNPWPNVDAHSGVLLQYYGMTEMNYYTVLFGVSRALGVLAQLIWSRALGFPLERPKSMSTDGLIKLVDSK
Protocol: as §1, §3, §4, §5, §7

[7] = biological target: T6, human apolactoferrin (HLF) (Homo sapiens, UniProt P02788); assay: HLF aggregation (turbidity at 360 nm) induced by DTT; settings: HLF 0.4 mg/mL, 43° C., DTT, head 10,000×, standard deviation in parenthesis
T6 construct: purchased Sigma
T6 sequence (P02788 20-710): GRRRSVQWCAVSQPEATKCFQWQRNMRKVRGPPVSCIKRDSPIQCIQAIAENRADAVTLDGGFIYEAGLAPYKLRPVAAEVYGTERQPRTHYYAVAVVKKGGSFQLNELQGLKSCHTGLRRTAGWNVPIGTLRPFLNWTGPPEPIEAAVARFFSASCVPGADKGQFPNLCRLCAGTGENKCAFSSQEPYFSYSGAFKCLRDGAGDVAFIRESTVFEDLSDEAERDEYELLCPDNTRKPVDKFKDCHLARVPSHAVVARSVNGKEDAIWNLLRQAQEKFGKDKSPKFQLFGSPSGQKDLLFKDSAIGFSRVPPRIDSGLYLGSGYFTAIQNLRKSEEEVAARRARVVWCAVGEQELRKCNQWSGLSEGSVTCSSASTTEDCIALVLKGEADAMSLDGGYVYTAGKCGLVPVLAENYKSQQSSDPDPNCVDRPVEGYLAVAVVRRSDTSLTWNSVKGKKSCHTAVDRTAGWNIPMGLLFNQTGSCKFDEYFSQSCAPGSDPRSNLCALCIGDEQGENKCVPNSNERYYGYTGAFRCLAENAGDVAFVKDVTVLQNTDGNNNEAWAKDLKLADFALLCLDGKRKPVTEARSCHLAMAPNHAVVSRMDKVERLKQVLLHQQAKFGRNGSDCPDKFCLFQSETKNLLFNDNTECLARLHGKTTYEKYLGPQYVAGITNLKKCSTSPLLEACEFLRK
Protocol: as §1, §2, §3, §4, §5, §6

[8] = biological target: T7, porcine somatotropin (pST) (Sus scrofa, UniProt P01248); assay: Porcine somatotropin aggregation (turbidity at 360 nm) with PEG 8000; settings: pST 1.27 mg/mL, 60° C., standard deviation in parenthesis
T7 construct: purchased Pfizer, Inc., Groton, Conn., USA (provided, not bought)
T7 sequence (P01248 27-216): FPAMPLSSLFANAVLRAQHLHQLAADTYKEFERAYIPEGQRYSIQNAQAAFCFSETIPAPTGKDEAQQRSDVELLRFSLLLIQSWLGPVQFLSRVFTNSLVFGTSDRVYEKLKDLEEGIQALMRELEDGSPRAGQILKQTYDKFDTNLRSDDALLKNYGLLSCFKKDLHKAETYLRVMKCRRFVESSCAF
Protocol: as §1, §2, §3, §4, §5, §6

[9] = compound 10,000X molar excess, Infinite = complete inhibition of aggregation over one hour
[10] = compound 1,000X, standard deviation in parenthesis

Row | Compound | inhibition of ADH aggregation, in words ([1]; FIG. 1) | inhibition index [2] | inhibition index ([3]; compound 1,000×) | inhibition index ([3]; compound 10,000×) | inhibition index [4] | inhibition index [5] | inhibition index [1, 9] | inhibition index ([6]; compound 10,000X) | inhibition index ([6]; compound 50,000X) | inhibition index ([7]; second HLF column) | inhibition index ([8]; compound 100X) | inhibition index ([8]; compound 2,000X) | inhibition index [1, 10] | inhibition index ([6]; compound 1,000X) | inhibition index ([7]; first HLF column) | inhibition of citrate synthase aggregation, in words [6]
1 | [Cl-].[Na+] [NaCl] | negligible effect on aggregation | – | – | – | – | – | – | – | – | – | – | – | – | – | – | –
2 | N.O=CO [ammonium formate] | – | 1.5 (0.3) | 0.9 (0.1) | 1.3 (0.3) | 0.8 (0.3) | 1.2 (0.5) | 1.2 (0.1) | 0.6 (0.0) | 1.2 (0.3) | 5.8 (1.1) | – | – | – | – | – | –
3 | O=C(O)CCCCCCCC(=O)O [azelaate, azelaic acid] | – | 1.0 (0.2) | 1.9 (0.2) | 6.1 (2.6) | 2.3 (0.6) | 1.5 (0.4) | – | 0.7 (0.6) | 4.4 (1.8) | 1455.0 | 0.6 (0.0) | 1.3 (0.3) | – | – | – | –
4 | Cl.N=C(N)N [guanidine HCl, guanidine hydrochloride] | – | 0.9 (0.2) | 1.2 (0.2) | 2.8 (0.9) | 1.7 (0.6) | 0.9 (0.4) | 0.2 (0.1) | 0.6 (0.4) | 0.4 (0.1) | 0.9 (0.1) | – | – | – | – | – | –
5 | CH3—NH2-(Glu)^−-(Gly)n-(Glu)^−-COO^− [CH3—NH2—(E)^−—(G)2—(E)^−—COO^−] | – | 0.8 (0.4) | 2.5 (0.6) | – | 0.4 (0.2) | 1.0 (0.2) | – | – | – | – | – | – | 1.1 (0.1) | 0.9 (0.2) | 1.7 (0.2) | –
6 | CH3—NH2-(Glu)^−-(Gly)n-(Glu)^−-COO^− [CH3—NH2—(E)^−—(G)4—(E)^−—COO^−] | – | 0.9 (0.3) | 1.6 (0.2) | – | 0.7 (0.4) | 1.4 (0.6) | – | – | – | – | – | – | 1.4 (0.1) | 0.7 (0.1) | 1.7 (0.3) | –
7 | CH3—NH2-(Glu)^−-(Gly)n-(Glu)^−-COO^− [CH3—NH2—(E)^−—(G)5—(E)^−—COO^−] | – | 0.1 (0.1) | 12.3 (0.4) | – | – | 1.3 (0.1) | – | – | – | – | – | – | 1.2 (0.1) | 0.6 (0.1) | 1.6 (0.1) | –
8 | Glu-Lys | – | 1.0 (0.4) | 1.6 (0.3) | 11.0 (3.0) | 1.0 (0.1) | 1.0 (0.1) | 18.4 | 1.6 (0.2) | 21.5 | 44.5 | – | – | 1.7 (0.1) | 0.8 (0.2) | 9.8 (0.3) | Potent inhibitors
9 | ^+NH3-(Lys)^+-(Gly)n-(Lys)^+-CONH2 [^+NH3—(K)^+—(G)1—(K)^+—CONH2] | – | 0.9 (0.2) | 2.3 (0.4) | – | 0.5 (0.2) | 0.9 (0.1) | – | – | – | – | – | – | 1.2 (0.1) | 1.0 (0.3) | 1.5 (0.2) | –
10 | ^+NH3-(Lys)^+-(Gly)n-(Lys)^+-CONH2 [^+NH3—(K)^+—(G)3—(K)^+—CONH2] | – | 1.2 (0.7) | 1.5 (0.4) | – | 0.8 (0.1) | 0.9 (0.3) | – | – | – | – | – | – | 1.2 (0.1) | 0.6 (0.1) | 2.1 (0.1) | –
